Measurements: patent publication EP4782450A1, “NOVEL SKELETAL DERIVATIVE EFFECTIVE FOR HER2 MUTATION, AND PHARMACEUTICAL COMPOSITION COMPRISING SAME” (Hanmi Pharm. Co., Ltd., priority 2023, dated 2025)

Experiments:
Ba/F3 HER2 A775insYVMA = experiment: Growth inhibition of Ba/F3 cells engineered to overexpress HER2 A775_G776insYVMA (CellTiter-Glo luminescence); assay type: cell-based; conditions: Mus musculus, BaF3, 72 hours, concentrations 1000 to 0.32 nM, read-out: Ba/F3 HER2^YVMA GI50 class
How it was run: (§1)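 Ba/F3 cells overexpressing HER2 A775_G776insYVMA (1000–0.32 nM) or wild-type EGFR (10000–8 nM) treated 72 h at 37°C in RPMI/10% FBS. Viability by CellTiter-Glo luminescence; GI50 by nonlinear regression with untreated growth set at 100%.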

[1] = tested on: wild-type EGFR overexpressing Ba/F3 cells; experiment: Growth inhibition of Ba/F3 cells engineered to overexpress wild-type EGFR (CellTiter-Glo luminescence); assay type: cell-based; conditions: Mus musculus, BaF3, 72 hours, concentrations 10000 to 8 nM, read-out: Ba/F3 EGFR^WT GI50 class
How it was run: as §1

With C=CC(=O)N1CCCC[C@H]1C#Cc1ccc2ncnc(Nc3ccc(Oc4ccn5ncnc5c4)c(C)c3)c2c1 [Example 77, (S)-1-(2-((4-((4-([1,2,4]triazolo[1,5-a]pyridin-7-yloxy)-3-methylphenyl)amino)quinazolin-6-yl)ethynyl)piperidin-1-yl)prop-2-en-1-one] the GI50 (Ba/F3 HER2 A775insYVMA) was under 100 nM and the GI50 [1] was under 100 nM.
